Assay results as given in BindingDB's records for doi:10.1021/jm950369c (University of Arizona, 1996).

Experiment: Inhibition of [3H]c[D-Pen2,p-Cl-Phe4,D-Pen5]enkephalin binding to delta opioid receptor of guinea pig brain plasma membrane homogenates

SMILES	IC50 [nM]
CC[C@H](C)[C@H](NC(=O)[C@H](CCCNC(=N)N)NC(=O)[C@@H]1CCCCNC(=O)C[C@H](NC(=O)[C@@H](N)Cc2ccc(O)cc2)C(=O)NCC(=O)N[C@@H](Cc2ccccc2)C(=O)N[C@@H](CC(C)C)C(=O)N1)C(=O)N[C@@H](CCCNC(=N)N)C(=O)N1CCC[C@H]1C(=O)N[C@@H](CCCCN)C(N)=O [Cyclic Lactam Peptide Analogues of Dynorphin A(1-11)-NH2Cyclic Lactam Peptide Analogues of Dynorphin A(1-11)-NH2]	12
CC[C@H](C)[C@H](NC(=O)[C@H](CCCCN)NC(=O)[C@H](CCCNC(=N)N)NC(=O)[C@H](CC(C)C)NC(=O)[C@H](Cc1ccccc1)NC(=O)[C@@H](CC(=O)O)NC(=O)CNC(=O)[C@@H](N)Cc1ccc(O)cc1)C(=O)N[C@@H](CCCNC(=N)N)C(=O)N1CCC[C@H]1C(=O)N[C@@H](CCCCN)C(N)=O [Cyclic Lactam Peptide Analogues of Dynorphin A(1-11)-NH2]	870
CC[C@H](C)[C@H](NC(=O)[C@H](CCCNC(=N)N)NC(=O)[C@@H]1CCCCNC(=O)C[C@@H](NC(=O)[C@@H](N)Cc2ccc(O)cc2)C(=O)NCC(=O)N[C@@H](Cc2ccccc2)C(=O)N[C@@H](CC(C)C)C(=O)N1)C(=O)N[C@@H](CCCNC(=N)N)C(=O)N1CCC[C@H]1C(=O)N[C@@H](CCCCN)C(N)=O [Cyclic Lactam Peptide Analogues of Dynorphin A(1-11)-NH2]	910
